Data reported in patent publication US11485728B2, “Small molecules for the treatment of autoimmune diseases and cancer” (Athos Therapeutics, Inc., priority 2020, dated 2022).
Where two headings read alike, the source gives them in different places.

How the values were obtained:
[1] = In-vitro half-life in rat liver microsomes; type: in vitro ADME; settings: Rat liver microsomes 0.5 mg/mL; 1 μg/mL drug; NRS; read-out: Metabolic Half-life
Experimental: In each of the species (human, rat, mouse) of liver matrix to be tested, a working concentration of 2 μg/mL was prepared of each test article from the 0.5 mg/mL DMSO stock solution by adding 3 μL of 0.5 mg/mL test article stock solution to 747 μL of the 1 mg/mL liver matrix. Incubation was performed at 37±2° C. with gentle, continuous mixing in shaking water bath in 2.0 mL-well capacity 96-Deepwell plates (96-DWP). Samples were retrieved in duplicate at the following time points: 0, 5, 10, 15, 30 and 60 minutes. The final mixture contained 1 μg/mL of drug and 0.5 mg/mL of liver matrix. First, 50 μL of test articles in liver matrix was added to the 96-DWP and pre-warmed the mixture in the 96-DWP for 2 minutes in the 37° C. water bath. The enzymatic reaction was started by the addition of 50 μL of the corresponding 2× NADPH regenerating system (NRS) cofactor solution to all sample wells and stopped by the addition of 300 μL of stop solution (acetonitrile containing 10 ng/mL Tolbutamide as an internal standard (I.Std.). The samples were agitated for 10 minutes and then centrifuged for 20 minutes at 4500 rpm. 25 μL of supernatant was diluted with 475 μL acetonitrile containing I. Std. into a new 96-DWPs for LC-MS/MS analysis.
Half-life calculations were generated and calculated by Graphpad Prism® software. The half-life of test compound was calculated based on the first-order reaction kinetics. The data was transformed to linear regression (y=log(y) where “y” axis represents the % compound remaining at any given time with respect to time 0 minutes; “x” axis represents time in minutes) in order to calculate the half-life.
A comparison of metabolic stability in time-course incubation experiments in varying species of liver can provide information of pharmacokinetic properties of drugs attributable to species-related differences in hepatic metabolism. The results of these experiments often assist in further applications such as assessing in vitro metabolite profiling and choosing relevant species for toxicology studies based on similarities relative to the metabolic stability to the human profile. For these experiments, the test compound was tested in parallel with a positive control, Dasatinab, in an enzymatic reaction solution of each species (human and rat) of liver microsomes containing a NADPH regenerating system (NRS). The final mixture contained 1 μg/mL of drug and 0.5 mg/mL of liver matrix. Incubations were performed at 37±2° C. with gentle, continuous mixing in shaking water bath in 96-Deep well plates. The stability of the test compound is monitored using fast, specific and sensitive LC/MS/MS analysis.

PAMPA permeability = settings: for Papp at 5 h, 20 μM: PAMPA, 5 hours at RT
CYP3A4 = target: T1, CYP3A4 (Homo sapiens, UniProt P08684); experiment: CYP-direct inhibition, CYP3A4; type: in vitro ADME
T1 construct: from tissue; host or cells: pooled human liver microsomes
T1 sequence (P08684 whole entry): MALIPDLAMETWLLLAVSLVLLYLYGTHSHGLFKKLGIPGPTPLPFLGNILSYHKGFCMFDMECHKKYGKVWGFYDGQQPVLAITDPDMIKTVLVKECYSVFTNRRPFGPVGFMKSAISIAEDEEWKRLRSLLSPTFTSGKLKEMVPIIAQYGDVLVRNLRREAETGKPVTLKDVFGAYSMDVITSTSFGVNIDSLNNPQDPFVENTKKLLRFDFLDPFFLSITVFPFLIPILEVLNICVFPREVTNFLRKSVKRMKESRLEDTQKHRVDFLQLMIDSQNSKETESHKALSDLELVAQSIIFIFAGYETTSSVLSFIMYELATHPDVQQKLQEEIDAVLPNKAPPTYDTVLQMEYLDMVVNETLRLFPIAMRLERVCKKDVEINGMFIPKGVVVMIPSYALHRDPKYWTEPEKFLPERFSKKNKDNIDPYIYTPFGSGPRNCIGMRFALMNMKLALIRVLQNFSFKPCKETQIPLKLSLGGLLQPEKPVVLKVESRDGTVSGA
Experimental: (§1) Many drugs inhibit cytochrome P450 enzymes to cause clinically significant changes in the pharmacokinetics of other drugs. In vitro cytochrome P450 inhibition, can provide crucial information in evaluating potential clinical drug-drug interactions and is useful for focusing in vivo tests to areas of concern. The cytochrome P450 inhibition assay was developed by preparing a working cocktail solution consisting of six probe substrates 10 μM ethoxy-resorufin (CYP1A2), 100 μM rosiglitazone (CYP2C8), 50 μM diclofenac (CYP2C9), 300 μM S-mephenytoin (CYP2C19), 50 μM dextromethorphan (CYP2D6), and 20 μM midazolam (CYP3A4). A mixture solution consists of 140 uL of 0.286 mg/mL of pooled human liver microsome working solution and 20 uL working solutions of test articles, standard control inhibitors, or positive control placebo and 20 uL of substrate cocktail mixture working solution was prepared. The mixture solution was pre-warm in a gentle shaking bath at 37±2° C. for 5 minutes. The enzymatic reaction started by adding 20 uL of NRS working solution to the mixture solution and incubated for 10 minutes at 37±2° C. To stop the reaction, an addition of 400 μL cold stop solution (acetonitrile containing 50 ng/mL Tolbutamide as an internal standard (I.Std.) was added to the mixture solution. The final concentration of test article, inhibitors, substrates, and cofactors are noted in Table 0.1 below. Two individual samples were prepared for each test compound. The extracted samples were vortexed and then centrifuged at 4500 rpm for 7 minutes using Eppendorf Centrifuge 5910R. 200 uL of supernatant was diluting with 200 uL of 50% Methanol into 96-DW plate for LC/MS/MS analysis
(§2) Concentration-response plots are used to determine the effects of an inhibitor on an enzymatic reaction. A typical concentration-response plot provides fractional activity (Y axis) is plotted as a function of log inhibitor concentration (X axis). The data are fitted using a standard Sigmoidal dose-response equation which is also called a […] logistic equation. The concentration of compound that results in 50% inhibition of maximal activity is termed as the IC50 (inhibitor concentration yielding 50% inhibition). IC50 value is calculated using Prism GraphPad software, version 9. […].
(§3) Cytochrome P450 inhibition of a drug is a key factor in determining pharmacokinetic drug-drug interactions. The objective of this study was to evaluate the inhibition potential of G9a inhibitors on six (6) major human cytochrome P450 enzymes, including CYP1A2, CYP2C8, CYP2C9, CYP2C19, CYP2D6, and CYP3A4. Inhibition was determined by using a substrate cocktail and analyzing the rate of specific metabolites formation. The cytochrome P450 inhibition assay was developed using a cocktail consisting of six (6) probe substrates ethoxy-resorufin (CYP1A2), rosiglitazone (CYP2C8), diclofenac (CYP2C9), S-mephenytoin (CYP2C19), dextromethorphan (CYP2D6), and midazolam (CYP3A4). The cocktail was incubated in human liver microsome with NADPH regenerating system (NRS) in a shaking bath at 37±2° C. The formation of specific metabolites was monitored by LC/MS/MS. Test compound was added to the cocktail-liver microsome mixture at varying concentrations and its effect on cytochrome P450 activity was determined by analyzing the rate of specific metabolite formation. The percent inhibition was calculated and plotted with reference to the concentration, and the IC50 value for inhibition was derived by fitting the data with a using log(inhibitor) vs. normalized response with variable slope least squares fit by Graphpad Prism® software. […].

CYP2D6 = target: T2, CYP2D6 (Homo sapiens, UniProt P10635); experiment: CYP-direct inhibition, CYP2D6; type: in vitro ADME
T2 construct: from tissue; host or cells: pooled human liver microsomes
T2 sequence (P10635 whole entry): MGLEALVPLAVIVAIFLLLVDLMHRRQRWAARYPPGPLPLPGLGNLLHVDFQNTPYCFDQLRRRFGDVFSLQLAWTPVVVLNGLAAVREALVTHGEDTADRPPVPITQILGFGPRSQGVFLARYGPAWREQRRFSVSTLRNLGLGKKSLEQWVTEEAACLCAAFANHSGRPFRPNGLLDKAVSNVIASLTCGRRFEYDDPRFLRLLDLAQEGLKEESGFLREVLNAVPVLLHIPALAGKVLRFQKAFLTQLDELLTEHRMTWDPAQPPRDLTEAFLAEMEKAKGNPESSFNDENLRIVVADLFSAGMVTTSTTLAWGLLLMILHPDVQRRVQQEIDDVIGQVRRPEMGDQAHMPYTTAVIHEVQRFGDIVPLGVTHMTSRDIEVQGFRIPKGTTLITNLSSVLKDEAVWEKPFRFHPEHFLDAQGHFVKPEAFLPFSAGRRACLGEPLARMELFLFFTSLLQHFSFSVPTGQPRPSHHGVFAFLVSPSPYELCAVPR
Experimental: as §1, §2, §3

[2] = PAMPA permeability Classification, 20 μM donor
[3] = Permeability, Pe, 20 μM donor in PBS/MeOH 90:10
[4] = human liver microsome, substrate dextromethorphan, read-out: IC50 CYP-2D6

| Compound | half-life at 1 μg/mL [1] | Papp at 5 h, 20 μM (PAMPA permeability; [2]) | Papp at 5 h, 20 μM (PAMPA permeability; [3]) | IC50 (CYP3A4) | IC50 (CYP2D6; [4]) | permeability / oral absorption potential (in words) (PAMPA permeability) | IC50 (CYP2D6) |
| --- | --- | --- | --- | --- | --- | --- | --- |
| COc1cc2c(NC3CCS(=O)(=O)CC3)nc(N3CCC(F)(F)CC3)nc2cc1OCCCN1CCCC1 [Compound 1, 4-((2-(4,4-difluoropiperidin-1-yl)-6-methoxy-7-(3-(pyrrolidin-1-yl)propoxy)quinazolin-4-yl)amino)tetrahydro-2H-thiopyran 1,1-dioxide] | > 1 h | < 0.55 nm/s | 0.441 nm/s | > 100 µM | 21.9 µM | – | – |
| COc1cc2c(NC3CCOCC3)nc(N3CCC(F)(F)CC3)nc2cc1OCCCN1CCCC1 [Compound 2, 2-(4,4-difluoropiperidin-1-yl)-6-methoxy-7-(3-(pyrrolidin-1-yl)propoxy)-N-(tetrahydro-2H-pyran-4-yl)quinazolin-4-amine] | 0.828 h | > 15 nm/s | 63.8 nm/s | > 100 µM | 17.6 µM | very high permeability | – |
| COCCN1CCC(Nc2nc(N3CCC(F)(F)CC3)nc3cc(OCCCN4CCCC4)c(OC)cc23)CC1 [Compound 3, 2-(4,4-difluoropiperidin-1-yl)-6-methoxy-N-(1-(2-methoxyethyl)piperidin-4-yl)-7-(3-(pyrrolidin-1-yl)propoxy)quinazolin-4-amine] | > 1 h | 0.55 to 15 nm/s | 4.51 nm/s | > 100 µM | 9.55 µM | – | – |
| COCCNc1nc(N2CCC(F)(F)CC2)nc2cc(OCCCN3CCCC3)c(OC)cc12 [Compound 4, 2-(4,4-difluoropiperidin-1-yl)-6-methoxy-N-(2-methoxyethyl)-7-(3-(pyrrolidin-1-yl)propoxy)quinazolin-4-amine] | > 1 h | > 15 nm/s | 17.7 nm/s | > 100 µM | 13.3 µM | very high permeability | – |
| COc1cc2c(NCC3CCN(C)CC3)nc(N3CCC(F)(F)CC3)nc2cc1OCCCN1CCCC1 [Compound 5, 2-(4,4-difluoropiperidin-1-yl)-6-methoxy-N-((1-methylpiperidin-4-yl)methyl)-7-(3-(pyrrolidin-1-yl)propoxy)quinazolin-4-amine] | > 1 h | < 0.55 nm/s | 0.0649 nm/s | > 100 µM | > 100 µM | – | – |
| COc1cc2c(NC3CCN(C(C)C)CC3)nc(N3CCC(F)(F)CC3)nc2cc1OCCCN1CCCC1 [Compound 400, 2-(4,4-difluoropiperidin-1-yl)-N-(1-isopropylpiperidin-4-yl)-6-methoxy-7-(3-(pyrrolidin-1-yl)propoxy)quinazolin-4-amine, reference compound] | > 1 h | – | – | > 100 µM | – | – | 28.8 µM |

Now from value to compound, other results behind:

| half-life at 1 μg/mL [1] | Papp at 5 h, 20 μM (PAMPA permeability; [2]) | Papp at 5 h, 20 μM (PAMPA permeability; [3]) | IC50 (CYP3A4) | IC50 (CYP2D6; [4]) | permeability / oral absorption potential (in words) (PAMPA permeability) | Compound | IC50 (CYP2D6) |
| --- | --- | --- | --- | --- | --- | --- | --- |
| 0.617 h | 0.55 to 15 nm/s | 5.84 nm/s | > 100 µM | 12 µM | – | COc1cc2c(Nc3ccncc3)nc(N3CCC(F)(F)CC3)nc2cc1OCCCN1CCCC1 [Compound 7, 2-(4,4-difluoropiperidin-1-yl)-6-methoxy-N-(pyridin-4-yl)-7-(3-(pyrrolidin-1-yl)propoxy)quinazolin-4-amine] | – |
| > 1 h | < 0.55 nm/s | 0.0173 nm/s | > 100 µM | > 100 µM | – | COc1cc2c(NC3CCNCC3)nc(N3CCC(F)(F)CC3)nc2cc1OCCCN1CCCC1 [Compound 8, 2-(4,4-difluoropiperidin-1-yl)-6-methoxy-N-(piperidin-4-yl)-7-(3-(pyrrolidin-1-yl)propoxy)quinazolin-4-amine] | – |
| > 1 h | < 0.55 nm/s | 0.0981 nm/s | > 100 µM | > 100 µM | – | COc1cc2c(NCC(N)=O)nc(N3CCC(F)(F)CC3)nc2cc1OCCCN1CCCC1 [Compound 9, 2-((2-(4,4-difluoropiperidin-1-yl)-6-methoxy-7-(3-(pyrrolidin-1-yl)propoxy)quinazolin-4-yl)amino)acetamide] | – |
| > 1 h | 0.55 to 15 nm/s | 4.58 nm/s | > 100 µM | 29.5 µM | – | COc1cc2c(NC3COC3)nc(N3CCC(F)(F)CC3)nc2cc1OCCCN1CCCC1 [Compound 11, 2-(4,4-difluoropiperidin-1-yl)-6-methoxy-N-(oxetan-3-yl)-7-(3-(pyrrolidin-1-yl)propoxy)quinazolin-4-amine] | – |
| > 1 h | < 0.55 nm/s | 0.0298 nm/s | > 100 µM | 43 µM | – | COc1cc2c(NC3CCS(=O)(=O)CC3)nc(N3CCCC3)nc2cc1OCCCN1CCCC1 [Compound 80, 4-((6-methoxy-2-(pyrrolidin-1-yl)-7-(3-(pyrrolidin-1-yl)propoxy)quinazolin-4-yl)amino)tetrahydro-2H-thiopyran 1,1-dioxide] | – |
| > 1 h | < 0.55 nm/s | 0.00648 nm/s | > 100 µM | 29 µM | – | COc1cc2c(NC3CCS(=O)(=O)CC3)nc(N3CCOCC3)nc2cc1OCCCN1CCCC1 [Compound 102, 4-((6-methoxy-2-morpholino-7-(3-(pyrrolidin-1-yl)propoxy)quinazolin-4-yl)amino)tetrahydro-2H-thiopyran 1,1-dioxide] | – |
| > 1 h | < 0.55 nm/s | 0.119 nm/s | > 100 µM | > 100 µM | – | COc1cc2c(NC3CCS(=O)(=O)CC3)nc(N3CCS(=O)(=O)CC3)nc2cc1OCCCN1CCCC1 [Compound 103, 4-(4-((1,1-dioxidotetrahydro-2H-thiopyran-4-yl)amino)-6-methoxy-7-(3-(pyrrolidin-1-yl)propoxy)quinazolin-2-yl)thiomorpholine 1,1-dioxide] | – |
